Test results: US9072729B2, “Method for treating fibrosis and cancer with imidazolium and imidazolinium compounds” (Agency for Science, Technology and Research, priority 2008, dated 2015)

Assays:
[1] = system: Huh7 cells; assay: HCC xenograft model (Huh7 cells in Balb/c nude mice); format: in vivo, mouse; settings: 3 weeks
Experimental: (§1) Balb/c Nude mice, 5-6 weeks old, were inoculated with 1×10^7 Huh7 cells in 0.2 ml volume of Matrigel/DMEM mix. Since not every mouse developed a tumor after the inoculation of HCC cells, only those with visible tumors (about 8 weeks after inoculation) were used for subsequent experiment. The tumor-bearing mice were randomly divided to the control and the treatment group. (n=3), respectively. Mice in the treatment group had free access to drinking water containing DBZIM (2 grams/liter) only, while mice in the control group had free access to Water only. The compound treatment lasted for 3 weeks. The tumor size was measured weekly, and the tumor volume was calculated using the formula: 0.52×width^2×length.
as §1, with “group” for “group.”, “compound 9 (IBN-9) at 0.6 g/l or 1.5 g/l” for “DBZIM (2 grams/liter)”, “water” for “Water”

[2] = system: MKN 28; assay: Growth inhibition assay (MTT), MKN 28; format: cell-based, human; settings: MKN 28, 72 h
Experimental: (§2) The percentage of growth inhibition was determined by using a MTT assay to measure viable cells. For the MTT assay, 1×10^3 cells per well were cultured in 96-well plates and treated with 0 to 100 μM of various types of IMSs for 72 h. After incubation for specified times at 37° C. in a humidified incubator, culture medium replaced with 10 μL of MTT reagent (5 mg/mL) contains 100 μL medium was added to each well and further incubated for 4 h. The reaction was stopped by adding 100 μL of DMSO. Absorbance was measured at 570 nm on a micro plate reader (SpectroMax 190, Molecular Devices). Data were presented from three separate experiments, and the percentage of IMSs induced cell growth inhibition was determined where DMSO-treated cells (control) were taken as 100%.
(§3) First, the cytotoxic effect of these drugs on these cells was investigated using the MTT assay. Cells were seeded into 96 well plates and treated with increasing concentrations of these synthetic organic molecules for 72 h, and then the cytotoxic effect was measured.

[3] = system: MDAMB231; assay: Growth inhibition assay (MTT), MDAMB231; format: cell-based, human; settings: MDAMB231, 72 h
Experimental: as §2, §3

[4] = system: MCF-10A; assay: Growth inhibition assay (MTT), MCF-10A; settings: 72 h
Experimental: as §2, §3

CC(=O)Oc1ccc(Cn2cc[n+](-c3c(C)cc(C)cc3C)c2)cc1.[Cl-] [compound 9, 1-(2,4,6-trimethylphenyl)-3-(4-acetate-benzyl)-imidazolium chloride]
reduction of tumor volume ([1]; 0.6 g/l in drinking water): 43% | body weight or gross pathology ([1]; 0.6 g/l or 1.5 g/l in drinking water): No change in body weight or gross pathology | reduction of tumor volume ([1]; 1.5 g/l in drinking water): 62% | IC50 [2]: 10 µM | IC50 [3]: 20 µM | IC50 in normal breast epithelial cells [4]: no IC50
